Measurements as given in patent publication US8138148B2, “GDNF derived peptides” (Copenhagen University, priority 2005, dated 2012).

B1: GDNF: glial cell line-derived neurotrophic factor, full-length protein used as stimulus (protein)
chain: SPDKQMAVLPRRERNRQAAAANPENSRGKGRRGQRGKNRGCVLTAIHLNVTDLGLGYETKEELIFRYCSGSCDAAETTYDKILKNLSRNRRLVSDKVGQACCRPIAFDDDLSFLDDNLVYHILRKHSAKRCGCI

Tests used:
Format in all cases: cell-based, rat
[1] = test system: hippocampal neurons; assay: Neurite outgrowth in co-cultures with pharmacological inhibitors (PP2, SU5402); conditions: neurons on control or NCAM-expressing fibroblasts; for effect of inhibitor on GDNF-induced neurite outgrowth: 10 ng/ml GDNF, PP2 0.2-25 μM, SU5402 1-25 μM; for effect of inhibitor on G2-induced neurite outgrowth: 3 μg/ml G2, PP2 0.2-100 μM, SU5402 1-100 μM, 24 hours
Procedure: (§1) In monocultures, neurons are grown directly on plastic and the only neuritogenic stimulus is the one presented by the added substance. In co-cultures, neurons are grown on top of a confluent monolayer of fibroblasts expressing NCAM-140 (LBN110) or NCAM-negative control fibroblasts (LVN212). NCAM on the neurons interact with NCAM on LBN110 cells thereby stimulating neurite outgrowth from the neurons. This system thus permits the study of NCAM-NCAM interactions and interactions between NCAM and other molecules.
(§2) For cocultures, L-cells were seeded in 8-well LabTek® Permanox Chamber slides at a density of 100.000 cells/well, except for transfection experiments where cells were seeded in 4-well LabTek® Permanox Chamber slides at a density of 200.000 cells/well. L-cells were grown for 24 hours in DMEM supplemented with 10% (v/v) FCS, 1% (v/v) glutamax, 100 U/ml penicillin, 100 μg/ml streptomycin, 2.5 μg/ml fungizone, and 567 μg/ml neomycin (G418), followed by washing twice in neurobasal medium with supplements before primary hippocampal neurons were seeded at a density of 7.000 cells/well in 8-well slides or 20.000 cells/well in 4-well slides.
To evaluate the involvement different intracellular signal transduction pathways pharmacological inhibitors, in particular the FGFR inhibitor SU5402 and Fyn-kinase inhibitor PP2, were diluted to the appropriate concentrations and added to the neurons immediately after seeding. After 10 minutes GDNF, GDNFp1 or medium (controls) was added and cells were incubated for 24 hours.
(§3) Neurite outgrowth experiments were terminated after the stated time by fixating the cells. To visualize neurons and their neurites, immunostaining of GAP-43 was performed. This staining is specific for neurons. Transfected cells and their neurites should be visible without immunostaining due to the fluorescence emitted by GFP. […] GFP is a cytoplasmic protein, and since thin neurites only contain a small volume of cytoplasm, GFP is only found in small amounts in most neurites. Therefore, a double-staining protocol, where cells were immunostained against GFP and GAP-43, was adopted. This protocol allowed the identification of transfected cells on the basis of GFP-staining in combination with visualization of neurites based on GAP-43-staining.
Without prior removal of the medium 300 μl/well (8-well slides) or 500 μl/well (4-well slides) of a PBS solution containing 0.4 mM CaCl2, 0.05 M sucrose and 8% (v/v) formaldehyde was added to the cultures for 20 minutes. Cells were then washed 10 minutes in PBS followed by washing in PBS with 1% (w/v) BSA for 20 minutes, after which cells were incubated with primary antibodies overnight at 4° C. […]

[2] = test system: primary hippocampal neurons; assay: Neurite outgrowth assay, monocultures of primary hippocampal neurons; conditions: monoculture, stimulated 24 hours; GDNF 1-100 ng/ml, peptides 0.1-27 μg/ml; versus medium alone
Procedure: (§4) Two different versions of the neurite outgrowth assay were used in this study, monocultures and co-cultures.
as §1
(§5) For all experiments cells were grown in neurobasal medium with supplements as described above in a final volume of 300 μl/well in 8-well LabTek® Permanox Chamber slides or 500 μl/well in 4-well LabTek® Permanox Chamber slides.
For monocultures, primary hippocampal neurons were seeded in 8-well LabTek® Permanox Chamber slides at a density of 10,000 cells/well.
(§6) To evaluate the effect peptides on neurite outgrowth, GDNF and the peptides, G1, G2, G3, A1, A2, A3, N1, N2 and N3 were diluted to the appropriate concentrations and added to the neurons approximately 10 minutes after seeding. Medium alone was added to controls, and cells were incubated for 24 hours.
as §3, with “GAP-43-staining. […]” for “GAP-43-staining.”

[3] = test system: hippocampal neurons; assay: Neurite outgrowth assay, co-cultures of hippocampal neurons on control fibroblasts or NCAM-expressing fibroblasts; conditions: 24 hours; for neurite outgrowth, overall effect of treatment, neurons grown on NCAM-expressing fibroblasts: co-culture on NCAM-expressing fibroblasts; for neurite outgrowth, overall effect of treatment, neurons grown on NCAM-expressing fibroblasts / neurite outgrowth, overall effect of treatment, neurons grown on control fibroblasts: GDNF 1-100 ng/ml, peptides 0.1-81 μg/ml; for neurite outgrowth, overall effect of treatment, neurons grown on control fibroblasts: co-culture on control fibroblasts; for difference between neurite outgrowth on control fibroblasts and on NCAM-expressing fibroblasts across concentrations (one-way ANOVA): difference per concentration, expressed as percentage of control
Procedure: as §4, §1, §5, §2, §6, §3
Without prior removal of the medium 300 μl/well (8-well slides) or 500 μl/well (4-well slides) of a PBS solution containing 0.4 mM CaCl2, 0.05 M sucrose and 8% (v/v) formaldehyde was added to the cultures for 20 minutes. Cells were then washed 10 minutes in PBS followed by washing in PBS with 1% (w/v) BSA for 20 minutes, after which cells were incubated with primary antibodies overnight at 4° C.
Rabbit anti-rat GAP-43 antibodies were diluted 1:1000 for staining of untransfected cells and 1:2000 for staining of transfected cells. Mouse anti-GFP antibodies were diluted 1:1000. Antibodies were diluted in a PBS solution containing 7% (v/v) FCS to block unspecific binding, 50 mM glycine to block formaldehyde used for fixation, 0.2% (v/v) saponin to permeabilize cells, and 0.02% (v/v) NaN3 to preserve antibodies for later use.
The next day cells were washed 10 minutes in PBS followed by washing in PBS with 1% (w/v) BSA for 20 minutes. Cells were then incubated with secondary antibodies diluted in PBS with 1% (w/v) BSA for one hour at room temperature. Goat anti-rabbit IgG antibodies conjugated to Alexa 488 were diluted 1:1000 for untransfected cells and 1:2000 for transfected cells. Goat anti-mouse IgG antibodies conjugated to Alexa 546 were diluted 1:1000. Finally cells were washed 3×7 minutes in PBS and mounted with fluorescent mounting medium. […]

[4] = test system: hippocampal neurons; assay: Neurite outgrowth of hippocampal neurons transfected with dominant negative FGFR; conditions: 10 ng/ml GDNF or 3 μg/ml GDNFp1, 18 hours, dnFGFR vs empty vector
Procedure: as §2
Additionally, neurons were transiently transfected with a dominant negative version of the FGFR (dnFGFR), As an alternative to the use of a pharmacological FGFR inhibitor, The dnFGFR plasmid encodes an FGFR that lacks the kinase domain. This mutant receptor inhibits the function of wild type FGFR by engaging in dimers that lack kinase activity. Transfection with an empty vector served as control. Transfection was also done with wtFGFR in order to assess the effect of overexpressing the FGFR.
Transfections were performed with a Nucleofector™ device and a Rat Neuron Nucleofector™ kit (Amaxa Inc., Gaithersburg, Md., USA). This transfection method is based on electroporation in combination with a Nucleofector™ solution containing lipophilic agents. These agents form liposomes containing the plasmid DNA, which then enter the cells during electroporation. The method allows transfection of undividing cells such as neurons. 3 μg of the plasmid of interest was mixed with the Nucleofector™ solution and primary hippocampal neurons were resuspended in the mixture, electroporated in the Nucleofector™ device, and transferred to neurobasal medium with supplements and 5% (v/v) FCS. Cells were then incubated for 2 hours after which they were resuspended in medium without serum, counted, seeded and incubated for 6 hours before GDNF or GDNFp1 was added. Medium alone was added to control and cells were incubated for 18 hours.
All transient transfections in this study included co-transfection with a plasmid encoding EGFP, which allows the identification of transfected cells. To ensure that all EGFP-expressing cells also are transfected with the plasmid of interest, a ratio of […] between the EGFP-encoding plasmid and the plasmid of interest was used (i.e. 0.5 μg EGFP-encoding plasmid was used for each transfection).
Neurite outgrowth experiments were terminated after the stated time by fixating the cells. To visualize neurons and their neurites, immunostaining of GAP-43 was performed. This staining is specific for neurons. Transfected cells and their neurites should be visible without immunostaining due to the fluorescence emitted by GFP. […]

Molecule	effect of inhibitor on GDNF-induced neurite outgrowth [1]	effect of inhibitor on G2-induced neurite outgrowth [1]	neurite outgrowth, overall effect of treatment (one-way ANOVA) [2]	neurite outgrowth, overall effect of treatment, neurons grown on NCAM-expressing fibroblasts [3]	neurite outgrowth, overall effect of treatment, neurons grown on control fibroblasts [3]	difference between neurite outgrowth on control fibroblasts and on NCAM-expressing fibroblasts across concentrations (one-way ANOVA) [3]	direction of the effect on NCAM-induced neurite outgrowth ([3]; neurons on NCAM-expressing fibroblasts, 0.3-81 μg/ml)	neurite outgrowth mediated by the substance after transfection with dominant negative FGFR, on NCAM-expressing fibroblasts ([4]; NCAM-expressing fibroblasts)	neurite outgrowth mediated by the substance after transfection with dominant negative FGFR, on control fibroblasts ([4]; control fibroblasts)
CC(C)(C)n1nc(-c2ccc(Cl)cc2)c2c(N)ncnc21 [PP2]	decreases GDNF-induced neurite outgrowth	decreases G2-induced neurite outgrowth	–	–	–	–	–	–	–
Cc1c[nH]c(/C=C2\C(=O)Nc3ccccc32)c1CCC(=O)O [SU5402]	decreases GDNF-induced neurite outgrowth	decreases G2-induced neurite outgrowth	–	–	–	–	–	–	–
DLSFLDDNLVY (listed as Homo sapiens) [G3, GDNF fragment]	–	–	do not induce neurite outgrowth	overall statistical significant effect	no overall significant effect	mean differences are not all the same	inhibitory at higher concentrations	–	–
B1	–	–	overall statistically significant effect	overall significant effect	overall significant effect	mean differences are not all the same	–	decreases neurite outgrowth	decreases neurite outgrowth
